From patent US7115624B1, “Method of inhibiting protein tyrosine phosphatase 1B and/or T-cell protein tyrosine phosphatase 4 and/or other PTPases with an Asp residue at position 48” (Novo Nordisk A/S, priority 1999, dated 2006)
Like-named read-outs stand apart in the source and are kept apart here.

Legend:
Format in all cases: biochemical
PTPβ = PTPβ (Homo sapiens, UniProt P23467); assay: PTPase inhibition, p-nitrophenyl phosphate substrate, Ki; details: pH 7.0 (Table 5); read-out: Ki values, PTPβ
PTPβ, sequence (P23467 1703-1963 limits assumed): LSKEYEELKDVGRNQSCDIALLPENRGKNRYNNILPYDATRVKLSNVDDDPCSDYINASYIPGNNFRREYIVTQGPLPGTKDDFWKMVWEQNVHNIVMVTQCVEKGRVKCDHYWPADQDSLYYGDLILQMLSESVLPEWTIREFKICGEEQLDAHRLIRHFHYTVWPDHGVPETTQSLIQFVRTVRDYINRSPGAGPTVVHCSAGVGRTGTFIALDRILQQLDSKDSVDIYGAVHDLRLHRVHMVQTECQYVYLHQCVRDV

PTPα [1] = target: T1, PTPα (Homo sapiens, UniProt P18433); assay: as above; details: pH 7.0 (Table 5); read-out: Ki values, PTPα
T1 construct: PTPα D1
T1 sequence (P18433 241-501 limits assumed): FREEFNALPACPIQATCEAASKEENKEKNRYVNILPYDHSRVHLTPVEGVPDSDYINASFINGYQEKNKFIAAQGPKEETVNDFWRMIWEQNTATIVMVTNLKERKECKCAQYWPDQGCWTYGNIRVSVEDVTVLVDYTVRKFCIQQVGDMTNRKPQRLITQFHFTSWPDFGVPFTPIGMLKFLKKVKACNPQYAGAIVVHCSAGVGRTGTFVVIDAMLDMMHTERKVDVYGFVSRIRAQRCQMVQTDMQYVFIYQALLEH

PTPε = target: T2, PTPε (Homo sapiens, UniProt P23469); assay: as above; details: pH 7.0 (Table 5); read-out: Ki values, PTPε
T2 construct: PTPε D1
T2 sequence (P23469 135-394 limits assumed): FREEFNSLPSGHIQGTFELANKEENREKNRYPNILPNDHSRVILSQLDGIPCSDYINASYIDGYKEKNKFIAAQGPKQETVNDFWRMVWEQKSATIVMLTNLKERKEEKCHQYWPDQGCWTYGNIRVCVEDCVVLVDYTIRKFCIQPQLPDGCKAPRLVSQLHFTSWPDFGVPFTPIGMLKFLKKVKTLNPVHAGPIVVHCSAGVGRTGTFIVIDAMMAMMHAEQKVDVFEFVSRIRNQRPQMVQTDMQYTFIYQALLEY
Protocol: The assay conditions are as follows. Appropriate concentrations of the compounds of the invention (e.g., 0.1 to 100 μM) are added to the reaction mixtures containing different concentrations of the substrate, p-nitrophenyl phosphate (range: 0.16 to 10 mM—final assay concentration). The buffer used was 50 mM HEPES pH 7.0, 100 mM sodium chloride, 0.1% (w/v) bovine serum albumin, 5 mM glutathione, and 1 mM EDTA. The reaction was started by addition of the enzyme and carried out in microtiter plates at 25° C. for 60 minutes. The reactions are stopped by addition of NaOH. […] The data are analyzed using nonlinear regression fit to classical Michaelis Menten enzyme kinetic models. Inhibition is expressed as Ki values in μM.

PTPα Q259G = PTPα Q259G (Homo sapiens, UniProt P18433, Q483G); assay: Enzyme kinetic analysis with mutant PTPs, Ki; details: pH 7.0
PTPα Q259G, sequence (P18433 211-512 Q483G limits assumed): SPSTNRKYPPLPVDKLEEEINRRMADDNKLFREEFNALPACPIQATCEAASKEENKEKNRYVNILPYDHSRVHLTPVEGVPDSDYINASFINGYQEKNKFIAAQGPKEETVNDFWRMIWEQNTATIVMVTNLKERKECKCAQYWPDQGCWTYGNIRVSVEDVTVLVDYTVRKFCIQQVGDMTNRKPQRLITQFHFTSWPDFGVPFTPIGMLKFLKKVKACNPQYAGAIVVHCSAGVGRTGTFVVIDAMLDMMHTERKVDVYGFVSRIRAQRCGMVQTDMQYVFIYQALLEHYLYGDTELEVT
Protocol: The compounds are evaluated for biological activity with a truncated form of PTP1B (corresponding to the first 321 amino acids), which was expressed in E. coli and purified to apparent homogeneity using published procedures well-known to those skilled in the art. The enzyme reactions are carried out using standard conditions essentially as described by Burke et al. (Biochemistry 35; 15989–15996 (1996)) incorporated by reference. The assay conditions are as follows. Appropriate concentrations of the compounds of the invention (e.g., 0.1 to 100 μM) are added to the reaction mixtures containing different concentrations of the substrate, p-nitrophenyl phosphate (range: 0.16 to 10 mM—final assay concentration). The buffer used was 50 mM HEPES pH 7.0, 100 mM sodium chloride, 0.1% (w/v) bovine serum albumin, 5 mM glutathione, and 1 mM EDTA. […] The enzyme activity was determined by measurement of the absorbance at 405 nm with appropriate corrections for absorbance at 405 nm of the compounds and p-nitrophenyl phosphate. The data are analyzed using nonlinear regression fit to classical Michaelis Menten enzyme kinetic models. Inhibition is expressed as Ki values in μM.

CD45 = target: T3, CD45 (Homo sapiens, UniProt P08575); assay: PTPase inhibition, p-nitrophenyl phosphate substrate, Ki; details: pH 7.0 (Table 5); read-out: Ki values, CD45
T3 sequence (P08575 599-1306 limits assumed): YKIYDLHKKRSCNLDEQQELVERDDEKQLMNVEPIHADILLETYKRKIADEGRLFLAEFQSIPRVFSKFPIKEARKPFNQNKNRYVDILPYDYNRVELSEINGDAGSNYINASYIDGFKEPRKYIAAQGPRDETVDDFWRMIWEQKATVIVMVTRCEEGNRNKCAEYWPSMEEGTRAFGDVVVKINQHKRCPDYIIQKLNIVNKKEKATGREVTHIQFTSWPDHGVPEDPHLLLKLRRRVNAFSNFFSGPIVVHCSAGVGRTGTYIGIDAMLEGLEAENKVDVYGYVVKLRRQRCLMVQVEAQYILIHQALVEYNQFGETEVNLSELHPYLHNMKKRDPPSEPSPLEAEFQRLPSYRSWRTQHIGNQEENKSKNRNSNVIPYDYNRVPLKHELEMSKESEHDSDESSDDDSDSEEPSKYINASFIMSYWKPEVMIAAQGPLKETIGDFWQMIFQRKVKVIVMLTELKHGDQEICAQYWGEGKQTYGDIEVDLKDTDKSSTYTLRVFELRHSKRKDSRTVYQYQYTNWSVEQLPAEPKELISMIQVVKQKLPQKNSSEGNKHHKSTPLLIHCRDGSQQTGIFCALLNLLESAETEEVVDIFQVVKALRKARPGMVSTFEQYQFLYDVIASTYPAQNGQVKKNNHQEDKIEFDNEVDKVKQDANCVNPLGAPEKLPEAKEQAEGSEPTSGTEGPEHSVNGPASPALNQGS

PTPα [2] = target: T1, PTPα; assay: as above; details: pH 7.0; wt (Table 4)
Description: (§1) To test directly, whether the above compound was addressing the proposed region of PTP1B, Compound N was subjected to detailed enzyme kinetic analyses using a set of wildtype (wt) and mutant PTPs. Two enzymes, PTPα and PTPH1, were chosen as representatives for PTPs with bulky side chains in the 259 position. Using a combination of wt and PTP mutants it has previously been shown that Gln259 in PTPα, in addition to its direct effect, also indirectly influences the binding of inhibitors and substrates, most likely due to a negative influence on the rotational freedom of the side chain of Gln262 (Peters et al., J. Biol. Chem. 275: 18201–18209 (2000)). As described above, selectivity can be obtained by introducing a basic nitrogen into 2-(oxalylamino)-4,5,6,7-tetrahydrobenzo[b]thiophene-3-carboxylic acid that causes attraction in PTP1B due to salt bridge formation to Asp48 and repulsion against PTPs with an asparagine in the 48 position, such as PTPα. To analyze if the current approach based on steric hindrance is generally applicable, it was decided to include a PTP with an aspartic acid in position 48. PTPH1, which like PTP1B is an intracellular enzyme with one domain only, was selected for these studies. The results of these studies are shown below (Table 4).
(§2) The assay conditions are as follows.

PTPH1 = target: T4, PTPH1 (Homo sapiens, UniProt P26045); assay: as above; details: pH 7.0; wt (Table 4)
T4 sequence (P26045 646-901 limits assumed): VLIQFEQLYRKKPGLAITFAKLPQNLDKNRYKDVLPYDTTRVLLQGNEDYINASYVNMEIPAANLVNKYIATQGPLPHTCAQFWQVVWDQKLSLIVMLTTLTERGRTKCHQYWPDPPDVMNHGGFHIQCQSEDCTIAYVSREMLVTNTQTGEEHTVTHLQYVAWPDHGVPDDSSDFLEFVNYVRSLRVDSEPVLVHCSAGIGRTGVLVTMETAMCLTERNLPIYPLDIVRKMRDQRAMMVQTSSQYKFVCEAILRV
Description: as §1, §2

TC-PTP = target: T5, TC-PTP (Homo sapiens, UniProt P17706); assay: as above; details: pH 7.0 (Table 5)
T5 sequence (P17706 5-275 limits assumed): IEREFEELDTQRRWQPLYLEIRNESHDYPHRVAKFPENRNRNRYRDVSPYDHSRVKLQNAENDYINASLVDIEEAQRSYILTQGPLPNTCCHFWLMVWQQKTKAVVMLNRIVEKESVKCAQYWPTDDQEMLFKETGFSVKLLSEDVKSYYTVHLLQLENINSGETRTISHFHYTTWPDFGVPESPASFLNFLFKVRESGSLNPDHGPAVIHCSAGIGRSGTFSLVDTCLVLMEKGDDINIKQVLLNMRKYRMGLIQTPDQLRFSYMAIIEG
Protocol: (§3) Specificity against a broad set of PTPs—It was next analyzed if the side chain of NNC 52–1153 would cause the increased selectivity against other PTPs. NNC 52–1153 was tested against a set of 10 different wt PTP domains (Table 5). It appears from this table that a substantial increase in affinity for PTP1B and TC-PTP has been obtained, while at the same time introducing a very high degree of selectivity against many other PTPs representing a broad spectrum of this class of enzymes (having Asp 48).
as §2

GLEPP1 = target: T6, GLEPP1 (Homo sapiens, UniProt Q16827); assay: as above; details: pH 7.0 (Table 5)
T6 sequence (Q16827 938-1195 limits assumed): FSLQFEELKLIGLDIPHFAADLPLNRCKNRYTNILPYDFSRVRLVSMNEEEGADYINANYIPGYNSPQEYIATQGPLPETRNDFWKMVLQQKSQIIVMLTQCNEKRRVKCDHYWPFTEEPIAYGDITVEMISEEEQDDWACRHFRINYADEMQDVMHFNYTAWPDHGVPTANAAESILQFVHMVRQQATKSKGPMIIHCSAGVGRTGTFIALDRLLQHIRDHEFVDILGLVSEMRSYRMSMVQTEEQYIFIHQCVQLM
Protocol: as §3, §2

Ki (PTPβ): 15 µM
Ki (PTPα [1]): 700 µM
Ki (PTPε): 460 µM
Ki (PTPα Q259G): 70 µM
Ki (CD45): 500 µM
Ki (PTPα [2]): > 500 µM
Ki (PTPH1): 55 µM
Ki (TC-PTP): 0.6 µM
Ki (GLEPP1): 150 µM
Structure (SMILES): O=C(O)C(=O)Nc1sc2c(c1C(=O)O)CCOC2COC1=NS(=O)(=O)c2ccccc21 (stereo not drawn) [Compound N, 7-(1,1-dioxo-1H-benzo[d]isothiazol-3-yloxymethyl)-2-(oxalyl-amino)-4,7-dihyd ro-5H-thieno[2,3-c]pyran-3-carboxylic acid]
